Key:
Type in all cases: in vivo
[1] = tested on: Vetch Aphid (Megoura viciae); assay: B.8 Vetch Aphid (Megoura viciae), broad bean leaf disks; conditions: foliar, 120 h, 2500 ppm, adult aphids on sprayed leaf disks, 5 days, in comparison with untreated controls, read-out: mortality
Method: B.8 Vetch Aphid (Megoura viciae)
For evaluating control of vetch aphid (Megoura viciae) through contact or systemic means the test unit consisted of 24-well-microtiter plates containing broad bean leaf disks.
The compounds were formulated using a solution containing 75% v/v water and 25% v/v DMSO. Different concentrations of formulated compounds were sprayed onto the leaf disks at 2.5 μl, using a custom built micro atomizer, at two replications.
After application, the leaf disks were air-dried and 5-8 adult aphids placed on the leaf disks inside the microtiter plate wells. The aphids were then allowed to suck on the treated leaf disks and incubated at about 23±1° C. and about 50±5% relative humidity for 5 days. Aphid mortality and fecundity was then visually assessed.

[2] = tested on: Diamond Back Moth (Plutella xylostella); assay: B.1 Diamond Back Moth (Plutella xylostella), cabbage leaf dip; conditions: foliar, 500 ppm, 3rd instar larvae on dipped cabbage leaves, 72 hours after treatment, in comparison with untreated controls, read-out: mortality
Procedure, shortened: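 Cabbage leaves dipped in compound in 1:1 water:acetone with 0.01% Kinetic HV surfactant, air-dried, then infested with ten 3rd-instar larvae on moist filter paper. Mortality scored at 72 h after treatment; feeding damage rated on a 0-100% scale.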

[3] = tested on: Mediterranean Fruitfly (Ceratitis capitata); assay: B.6 Mediterranean Fruitfly (Ceratitis capitata), microtiter plate insect diet; conditions: 120 h, 800 ppm, sprayed onto insect diet, 5 days, in comparison with untreated controls, read-out: mortality (egg and larval)
Procedure, shortened: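 Insect diet with 50-80 C. capitata eggs sprayed with compounds formulated in 75% water/25% DMSO, at different concentrations, two replications. Incubation at about 28±1° C and 80±5% relative humidity for 5 days, then egg and larval mortality assessed visually.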

[4] = tested on: Tobacco Budworm (Heliothis virescens); assay: B.7 Tobacco Budworm (Heliothis virescens) I, microtiter plate insect diet; conditions: 120 h, 800 ppm, sprayed onto insect diet, 5 days, in comparison with untreated controls, read-out: mortality (egg and larval)
Procedure, shortened: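 96-well plates with insect diet and 15-25 H. virescens eggs; compounds in 75% water/25% DMSO sprayed onto diet at several concentrations, two replicates. Plates held at about 28±1° C. and 80±5% relative humidity for 5 days, then egg and larval mortality scored visually.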

[5] = tested on: Boll Weevil (Anthonomus grandis); assay: B.3 Boll Weevil (Anthonomus grandis), microtiter plate insect diet; conditions: 120 h, 800 ppm, sprayed onto insect diet, 5 days, in comparison with untreated controls, read-out: mortality (egg and larval)
Procedure, shortened: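 Compounds in 25% DMSO/water sprayed at several concentrations onto insect diet in microtiter wells holding 5–10 A. grandis eggs, two replicates. Plates kept 5 days at about 25±1 °C and 75±5% RH. Egg and larval mortality scored visually.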

[6] = tested on: Southern Armyworm (Spodoptera eridania), 2nd Instar Larvae; assay: B.10 Southern Armyworm (Spodoptera eridania), 2nd Instar Larvae, sprayed lima bean plants; conditions: 96 h, 300 ppm, larvae on sprayed lima bean plants, 4 days after treatment, in comparison with untreated controls, read-out: mortality
Method: B.10 Southern Armyworm (Spodoptera eridania), 2nd Instar Larvae
(§1) The active compounds were formulated by a Tecan liquid handler in 100% cyclohexanone as a 10,000 ppm solution supplied in tubes. The 10,000 ppm solution was serially diluted in 100% cyclohexanone to make interim solutions. These served as stock solutions for which final dilutions were made by the Tecan in 50% acetone:50% water (v/v) into 5 or 10 ml glass vials. A nonionic surfactant (Kinetic®) was included in the solution at a volume of 0.01% (v/v). The vials were then inserted into an automated electrostatic sprayer equipped with an atomizing nozzle for application to plants/insects.
Lima bean plants (variety Sieva) were grown 2 plants to a pot and selected for treatment at the 1st true leaf stage. Test solutions were sprayed onto the foliage by an automated electrostatic plant sprayer equipped with an atomizing spray nozzle. The plants were dried in the sprayer fume hood and then removed from the sprayer. Each pot was placed into perforated plastic bags with a zip closure. About 10 to 11 armyworm larvae were placed into the bag and the bags zipped closed. Test plants were maintained in a growth room at about 25° C. and about 20-40% relative humidity for 4 days, avoiding direct exposure to fluorescent light (24 hour photoperiod) to prevent trapping of heat inside the bags. Mortality and reduced feeding were assessed 4 days after treatment, compared to untreated control plants.

[7] = tested on: Yellow Fever Mosquito (Aedes aegypti); assay: whole plant or invertebrate; conditions: 48 h, freshly hatched larvae in tap water, 2 days, in comparison with untreated controls, read-out: mortality (larval)
Procedure, shortened: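 Freshly hatched A. aegypti larvae, 5–15 per well, were held in 200 μl tap water. Compounds formulated in 75:25 water:DMSO were sprayed at various concentrations, 2.5 μl per well by micro-atomizer, in two replicates.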

[8] = tested on: Orchid thrips (dichromothrips corbetti); assay: B.12 Orchid thrips (dichromothrips corbetti), floral-immersion technique; conditions: adult thrips on dipped orchid petals, 72 hours after treatment, in comparison with untreated controls
Procedure, shortened: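 Whole orchid flower petals were dipped in compound in 1:1 acetone:water with 0.01% v/v Kinetic HV, dried, and enclosed with about 20 adult thrips. They were held under continuous light at about 28° C. Live thrips were counted and percent mortality recorded at 72 hours.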

[9] = tested on: Green Peach Aphid (Myzus persicae); assay: B.9 Green Peach Aphid (Myzus persicae), sprayed bell pepper plants; conditions: 120 h, infested bell pepper plants sprayed, after 5 days, in comparison with untreated controls
Method: B.9 Green Peach Aphid (Myzus persicae)
as §1, with “in 100% cyclohexa none as a” for “in 100% cyclohexanone as a”
Bell pepper plants at the first true-leaf stage were infested prior to treatment by placing heavily infested leaves from the main colony on top of the treatment plants. Aphids were allowed to transfer overnight to accomplish an infestation of 30-50 aphids per plant and the host leaves were removed. The infested plants were then sprayed by an automated electrostatic plant sprayer equipped with an atomizing spray nozzle. The plants were dried in the sprayer fume hood, removed, and then maintained in a growth room under fluorescent lighting in a 24-hr photoperiod at about 25° C. and about 20-40% relative humidity. Aphid mortality on the treated plants, relative to mortality on untreated control plants, was determined after 5 days.

[10] = tested on: Silverleaf Whitefly (Bemisia argentifoli); assay: B.5 Silverleaf Whitefly (Bemisia argentifoli), sprayed cotton plants; conditions: 72 h, whitefly adults on sprayed cotton plants, 3 days after treatment, in comparison with untreated controls
Method: B.5 Silverleaf Whitefly (Bemisia argentifoli)
as §1
Cotton plants at the cotyledon stage (one plant per pot) were sprayed by an automated electrostatic plant sprayer equipped with an atomizing spray nozzle. The plants were dried in the sprayer fume hood and then removed from the sprayer. Each pot was placed into a plastic cup and about 10 to 12 whitefly adults (approximately 3-5 days old) were introduced. The insects were collected using an aspirator and a nontoxic Tygon® tubing connected to a barrier pipette tip. The tip, containing the collected insects, was then gently inserted into the soil containing the treated plant, allowing insects to crawl out of the tip to reach the foliage for feeding. Cups were covered with a reusable screened lid. Test plants were maintained in a growth room at about 25° C. and about 20-40% relative humidity for 3 days, avoiding direct exposure to fluorescent light (24 hour photoperiod) to prevent trapping of heat inside the cup. Mortality was assessed 3 days after treatment, compared to untreated control plants.

Fc1ccc(NC(=S)N/N=C/c2ccc3c(ccc4c3ncn4-c3ccc(OC(F)(F)F)cc3)c2)c(F)c1 [C-5, 1-(2,4-difluorophenyl)-3-[(E)-[3-[4-(trifluoromethoxy)phenyl]benzo[e]benzimidazol-7-yl]methyleneamino] thiourea]
≥ 75%: mortality at 2500 ppm [1] | mortality at 500 ppm [2] | mortality at 800 ppm [3] | mortality at 800 ppm [4] | mortality at 800 ppm [5]

Cc1cccc(C)c1NC(=S)N/N=C/c1ccc2c(ccc3c2ncn3-c2ccc(SC(F)(F)F)cc2)c1 [C-75, 1-(2,6-dimethylphenyl)-3-[(E)-[3-[4-(trifluoromethylsulfanyl)phenyl]benzo[e]benzimidazol-7-yl]methyleneamino] thiourea]
≥ 75%: mortality at 500 ppm [2] | mortality at 800 ppm [3] | mortality at 800 ppm [4] | mortality at 800 ppm [5] | mortality at 300 ppm [6] | mortality at 800 ppm [7] | mortality at 500 ppm [8] | mortality at 800 ppm [9] | mortality at 300 ppm [10]

Cc1cccc(C)c1NC(=S)N/N=C/c1ccc2c(ccc3c2ncn3-c2ccc(C(F)(F)F)cn2)c1 [C-109, 1-(2,6-dimethylphenyl)-3-[(E)-[3-[5-(trifluoromethyl)-2-pyridyl]benzo[e]benzimidazol-7-yl]methyleneamino] thiourea]
≥ 75%: mortality at 500 ppm [2] | mortality at 800 ppm [3] | mortality at 800 ppm [4] | mortality at 800 ppm [5] | mortality at 800 ppm [7] | mortality at 800 ppm [9] | mortality at 300 ppm [10]

Cc1ccc(-n2cnc3c4ccc(/C=N/NC(=S)Nc5c(C)cccc5C)cc4ccc32)cc1 [C-105, 1-(2,6-dimethylphenyl)-3-[(E)-[3-(p-tolyl)benzo[e]benzimidazol-7-yl]methyleneamino]thiourea]
≥ 75%: mortality at 2500 ppm [1] | mortality at 800 ppm [3] | mortality at 800 ppm [5]

Cc1cccc(Cl)c1NC(=S)N/N=C/c1ccc2c(ccc3c2ncn3-c2ccc(C(F)(F)F)cc2)c1 [C-77, 1-(2-chloro-6-methyl-phenyl)-3-[(E)-[3-[4-(trifluoromethyl)phenyl]benzo[e]benzimidazol-7-yl]methyleneamino] thiourea]
≥ 75%: mortality at 500 ppm [2] | mortality at 800 ppm [3] | mortality at 800 ppm [4] | mortality at 800 ppm [5] | mortality at 300 ppm [6] | mortality at 800 ppm [7] | mortality at 500 ppm [8] | mortality at 800 ppm [9] | mortality at 300 ppm [10]

FC(F)(F)Oc1ccc(-c2onc3c2CCc2cc(/C=N/NC(=S)Nc4cc(C(F)(F)F)ccc4Cl)ccc2-3)cc1 [C-18, 1-[2-chloro-5-(trifluoromethyl)phenyl]-3-[(E)-[3-[4-(trifluoromethoxy)phenyl]-4,5-dihydrobenzo[g][2,1]benzoxazol-7-yl]methyleneamino]thiourea]
≥ 75%: mortality at 2500 ppm [1]

CC(C)c1ccccc1N1C(=O)CS/C1=N\N=C\c1ccc2c(ccc3c2ncn3-c2ccc(OC(F)(F)F)cc2)c1 [C-51]
≥ 75%: mortality at 500 ppm [2] | mortality at 800 ppm [3] | mortality at 800 ppm [4] | mortality at 800 ppm [5] | mortality at 300 ppm [6] | mortality at 800 ppm [7] | mortality at 500 ppm [8] | mortality at 800 ppm [9] | mortality at 300 ppm [10]

CCc1cccc(C)c1NC(=S)N/N=C/c1ccc2c(ccc3c2ncn3-c2ccc(SC(F)(F)F)cc2)c1 [C-76, 1-(2-ethyl-6-methyl-phenyl)-3-[(E)-[3-[4-(trifluoromethylsulfanyl)phenyl]benzo[e]benzimidazol-7-yl]methyleneamino]thiourea]
≥ 75%: mortality at 500 ppm [2] | mortality at 800 ppm [3] | mortality at 800 ppm [4] | mortality at 800 ppm [5] | mortality at 300 ppm [6] | mortality at 800 ppm [7] | mortality at 500 ppm [8] | mortality at 800 ppm [9] | mortality at 300 ppm [10]

CCc1cccc(CC)c1NC(=S)N/N=C/c1ccc2c(ccc3c2ncn3-c2ccc(OC(F)(F)F)cc2)c1 [C-70, 1-(2,6-diethylphenyl)-3-[(E)-[3-[4-(trifluoromethoxy)phenyl]benzo[e]benzimidazol-7-yl]methyleneamino] thiourea]
≥ 75%: mortality at 500 ppm [2] | mortality at 800 ppm [4] | mortality at 800 ppm [5] | mortality at 300 ppm [6] | mortality at 800 ppm [7] | mortality at 500 ppm [8] | mortality at 800 ppm [9] | mortality at 300 ppm [10]

CS/C(=N\N=C\c1ccc2c(ccc3c2ncn3-c2ccc(OC(F)(F)F)cc2)c1)Nc1ccccc1C(C)C [C-52, (1Z,N′E)-methyl N-2-isopropylphenyl-N′-((3-(4-(trifluoromethoxy)phenyl)-3H-naphtho[1,2-d]imidazol-7-yl)methylene)carbamohydrazonothioate]
≥ 75%: mortality at 500 ppm [2] | mortality at 800 ppm [3] | mortality at 800 ppm [4] | mortality at 800 ppm [5] | mortality at 300 ppm [6] | mortality at 500 ppm [8] | mortality at 800 ppm [9] | mortality at 300 ppm [10]

CC(C)c1ccccc1N1CCCSC1=NN=Cc1ccc2c(ccc3c2ncn3-c2ccc(OC(F)(F)F)cc2)c1 (stereo in doubt) [C-55, (Z)-3-(2-isopropylphenyl)-2-((E)-((3-(4-(trifluoromethoxy)phenyl)-3H-naphtho[1,2-d]imidazol-7-yl)methylene)hydrazono)-1,3-thiazinane]
≥ 75%: mortality at 500 ppm [2] | mortality at 800 ppm [3] | mortality at 800 ppm [4] | mortality at 800 ppm [5] | mortality at 300 ppm [6] | mortality at 800 ppm [7] | mortality at 500 ppm [8] | mortality at 300 ppm [10]
